Measurements: ChEMBL document CHEMBL1131932, “Simplification of adenophostin A defines a minimal structure for potent glucopyranoside-based mimics of D-myo-inositol 1,4,5-trisphosphate” (Bioorg Med Chem Lett, 1999)

Species: Rattus norvegicus
Assay: Effect on [Ca2+] efflux in rat hepatocytes
Format: functional
Settings: Hepatocyte

Structure (SMILES): O=P(O)(O)O[C@@H]1[C@H](O)[C@@H](O[C@@H]2COC[C@@H]2OP(=O)(O)O)O[C@@H](CO)[C@H]1OP(=O)(O)O
- EC50: 194 nM

Structure (SMILES): O=P(O)(O)O[C@@H]1[C@H](O)[C@H](O)[C@@H](OP(=O)(O)O)[C@H](OP(=O)(O)O)[C@H]1O [INS(1,4,5)P3]
- EC50: 329 nM
